Several values for one entry are separate records, joined by “and”; a condition that tells them apart may be missing. Equal values may be shown once. Marks after values point to notes of the source that are not given here.
Columns and labels:
[1] = Phase 2b/3 trial, estimated GFR and CKD stage; type: in vivo, human; conditions: for patients with improvement in CKD stage: Stage 4 to 3b or 3b to 3a; for Change from baseline eGFR, mean ± SE: longitudinal model
Description: Weight measurements were included in the study as a basic clinical parameter. […] Screening estimated GFR was calculated as the mean of two estimated GFR results (differing no more than 25%) collected at least 5 days apart within a 3-week period. […] Exclusion criteria included type 1 diabetes, non-diabetic kidney disease, hemoglobin A1c>10%, QTc […] interval >450 milliseconds, evidence of hepatic dysfunction, and recent cardiovascular disease. […] Study drug was taken orally once daily in the morning one hour prior to food intake. Dose titration occurred as follows: (1) placebo; (2) 25 mg; (3) 25 mg, increased to 75 mg after 4 weeks; and (4) 25 mg, increased to 75 mg after 4 weeks, further increased to 150 mg after an additional 4 weeks. Randomization was stratified by CKD stage (3b versus 4), urinary albumin to creatinine ratio (ACR; ≤ versus >300 mg/g), and glucose control (hemoglobin A1c< versus ≥7%). An independent Data Safety Monitoring Board monitored patient safety. Estimated GFR and routine safety laboratory testing was done at screening and every four weeks thereafter using a central laboratory. Adverse events and clinical laboratory parameters were assessed at each visit. Analysis of the primary outcome, change from baseline estimated GFR at Week 24, occurred after all randomized patients completed Week 24 or previously discontinued study. Exploratory outcomes included change from baseline at Week 24 in serum creatinine, blood urea nitrogen, serum phosphorus, uric acid, ACR, hemoglobin A1c, and intact parathyroid hormone.

Nrf2 = Nrf2 activity in blood cells in clinical trials; type: in vivo, human; conditions: at therapeutic doses
Description: One AIM, bardoxolone methyl (BARD), is in advanced clinical trials for the treatment of chronic kidney disease.

[2] = Phase 2 clinical trial, patient body weight and tolerability; type: in vivo, human
Description: See Example 1, below. […] In this study, the protocol stipulated that patient weights were to be taken at baseline (D−1=1 day before initiation of dosing), Day 28, and Day 56. […] In this study, the protocol stipulated that patient weights were to be taken at baseline (D−1=1 day before initiation of dosing), Day 28, and Day 56. […] Prior to initiation of treatment, basic clinical observations (e.g., weight, blood pressure, height) were recorded along with baseline values for serum creatinine, blood urea nitrogen, serum phosphorus, serum uric acid, angiotensin II, fasting glucose, hemoglobin A1c, circulating endothelial cells (CECs), and iNOS-positive CECs.

[3] = 12-month toxicity study, whole blood exposure; type: in vivo, cynomolgus monkeys; conditions: Days 1 and 28; 30, 100 and 300 mg/kg/day oral gavage
Description: All the animals were healthy and within normal weights for their age at the start of the study. The dose levels were 0, 30/5, 100/30, and 300 mg/kg/day and administered at a dose volume of 3 mL per dose. The control group received the vehicle in the same manner as the treated groups. Just prior to administration, the test article for each animal was added to the syringe containing the vehicle for each animal and vortexed until thoroughly mixed to achieved the desired concentrations of 30, 100, and 300 mg/mL through Day 42 (Week 6). During administration, the syringe containing the test article preparation for each animal was pushed through the gavage tube. The 1 mL vehicle rinse was then added to the dosing syringe and administered. After administration of both volumes, a 5 mL flush of the vehicle was used to rinse the gavage tube and ensure that the entire amount of the test article was administered to the animal. […] Therefore, dose levels were adjusted so that different blood exposures could be examined. During Week 7 dosing for all animals was stopped for four days (Days 43 to 46). The initial dose levels of 30 and 100 mg/kg/day were reduced to 5 and 30 mg/kg/day, respectively, and dosing was resumed on Day 47 through Day 353. Individual doses were based on the most recent body weights.

[4] = Phase 2 clinical trial, renal function, glycemic control, circulating endothelial cells; type: in vivo, human
Description: See U.S. Patent Application Publication 2009/0326063A1, which is incorporated by reference herein in its entirety. […] In this study, the protocol stipulated that patient weights were to be taken at baseline (D−1=1 day before initiation of dosing), Day 28, and Day 56. Weight data were available for all but one patient who started the study (a baseline weight was not recorded for this patient). In the remaining patients, 14 of 17 had lost weight at Day 28 (mean weight loss was 1.6% of baseline weight) and 17 of 17 had lost weight at Day 56 (mean weight loss was 3.7% of baseline, with a median of 3.1%). […] Prior to initiation of treatment, basic clinical observations (e.g., weight, blood pressure, height) were recorded along with baseline values for serum creatinine, blood urea nitrogen, serum phosphorus, serum uric acid, angiotensin II, fasting glucose, hemoglobin A1c, circulating endothelial cells (CECs), and iNOS-positive CECs. […] Reductions of more than 10% were also observed in BUN, serum creatinine, uric acid, and urinary albumin creatinine ratio.

[5] = Week 24, all bardoxolone methyl patients
[6] = Stratum 2, All Patients (n = 18), change

COC(=O)[C@]12CCC(C)(C)C[C@H]1[C@H]1C(=O)C=C3[C@@]4(C)C=C(C#N)C(=O)C(C)(C)[C@@H]4CC[C@@]3(C)[C@]1(C)CC2 [bardoxolone methyl]
patients with improvement in CKD stage ([1]; 25 mg group): 53%
patients with improvement in CKD stage ([1]; 75 mg group): 69%
patients with improvement in CKD stage ([1]; 150 mg group): 61%
estimated GFR, mean increases compared to placebo ([1]; Week 24, 25 mg group): 8.3±1.1 mL/min/1.73 m^2
Change from baseline eGFR, difference between bardoxolone methyl and placebo, mean ± SE ([1]; Week 24, 25 mg vs placebo): 8.2 ± 1.5 mL/min/1.73 m^2
Change from baseline eGFR, mean ± SE ([1]; Week 24, 25 mg): 8.3 ± 1.1 mL/min/1.73 m^2
estimated GFR, mean increases compared to placebo ([1]; Week 24, 75 mg group): 11.5±1.1 mL/min/1.73 m^2
Change from baseline eGFR, difference between bardoxolone methyl and placebo, mean ± SE ([1]; Week 24, 75 mg vs placebo): 11.4 ± 1.5 mL/min/1.73 m^2
Change from baseline eGFR, mean ± SE ([1]; Week 24, 75 mg): 11.5 ± 1.1 mL/min/1.73 m^2
estimated GFR, mean increases compared to placebo ([1]; Week 24, 150 mg group): 10.6±1.1 mL/min/1.73 m^2
Change from baseline eGFR, difference between bardoxolone methyl and placebo, mean ± SE ([1]; Week 24, 150 mg vs placebo): 10.5 ± 1.5 mL/min/1.73 m^2
Change from baseline eGFR, mean ± SE ([1]; Week 24, 150 mg): 10.6 ± 1.1 mL/min/1.73 m^2
patients with more than a 10% increase in estimated GFR [1, 5]: 74%
patients with more than a 50% increase in estimated GFR [1, 5]: 24%
Change from baseline eGFR, difference between bardoxolone methyl and placebo, mean ± SE ([1]; Week 24, combined vs placebo): 10.0 ± 1.3 mL/min/1.73 m^2
time from treatment initiation to observed increases in estimated GFR ([1]; bardoxolone methyl groups): ≤ 4 weeks
time of peak increase in estimated GFR ([1]; bardoxolone methyl groups, stable through Week 24): 12 Week
patients with worsening of CKD stage ([1]; each bardoxolone methyl group (2 patients)): 4%
Nrf2 activity in blood cells (Nrf2): induces Nrf2 activity
mean weight loss ([2]; Day 28): 1.6 % of baseline weight
patients who had lost weight at Day 28 ([2]; Day 28, 25 mg once per day): 14 of 17
mean weight loss ([2]; Day 56): 3.7 % of baseline
median weight loss ([2]; Day 56, of baseline): 3.1%
patients who had lost weight at Day 56 ([2]; Day 56, 25 mg/day 28 days then 75 mg/day 28 days): 17 of 17
patients who lost more than 2% of their baseline weight ([2]; between Day −1 and Day 56): all but three
Weight D28 ([2]; individual CKD/Type 2 diabetes patients, Day 28, 25 mg once per day oral): 80.7 kg and 75.7 kg and 108.9 kg (2×) and 80.3 kg and 112.9 kg and 78.9 kg and 88.5 kg and 104.3 kg and 169.3 kg and 52.6 kg and 83.5 kg and 159.7 kg and 114 kg and 92.1 kg and 89.9 kg and 88.0 kg
Percent Change D28/D-1 (weight) ([2]; individual patients, Day 28 vs baseline, 25 mg/day): 0.0% (2×) and −0.7% and −2.4% (2×) and −1.6% and −3.5% and −1.2% and −8.5% and −1.4% and −0.1% and −12.8% and −0.5% and 0.3% and −0.3% and −1.0% and −3.0%
Weight D56 ([2]; individual patients, Day 56, 25 mg/day 28 days then escalated to 75 mg/day 28 days): 75.7 kg and 74.4 kg and 107.0 kg and 78.5 kg and 97.1 kg and 108.0 kg and 111.1 kg and 77.1 kg and 88 kg and 102.1 kg and 165.9 kg and 52.2 kg and 80.3 kg and 157.9 kg and 110.4 kg and 87.1 kg
Weight D56 ([2]; individual patients, Day 56, start dose 25 mg, escalated dose N/A): 91.6 kg and 87.4 kg
Percent Change D56/D-1 (weight) ([2]; individual patients, Day 56 vs baseline, 25 mg/day then escalated to 75 mg/day): −6.2% and −2.4% and −4.1% and −3.8% and −6.9% and −3.2% and −2.8% and −10.6% and −2.0% and −2.1% and −13.4% and −4.3% and −0.8% and −3.5% and −1.0%
Percent Change D56/D-1 (weight) ([2]; individual patients, Day 56 vs baseline, start dose 25 mg, escalated dose N/A): −1.5% and −5.7%
Weight D28, Mean ([2]; mean of all patients, Day 28): 99.4 kg
Percent Change D28/D-1 (weight), Mean ([2]; mean of all patients, Day 28 vs baseline): −1.6%
Weight D56, Mean ([2]; mean of all patients, Day 56): 97.3 kg
Percent Change D56/D-1 (weight), Mean ([2]; mean of all patients, Day 56 vs baseline): −3.7%
tolerability ([2]; patients with Type 2 diabetes and CKD, 56 days): very well tolerated
exposure in whole blood samples [3]: no significant differences in exposure across the three dose levels
CECs ([4]; Phase 2 study): Significant reductions
iNOS-positive CECs ([4]; Phase 2 study): Significant reductions
reduction in BUN ([4]; Phase 2 study): more than 10%
reduction in serum creatinine ([4]; Phase 2 study): more than 10%
reduction in uric acid ([4]; Phase 2 study): more than 10%
Patients with eGFR Increase ([4]; Stratum 2, All Patients (n = 18)): 89%
Blood Urea Nitrogen [4, 6]: −14.9%
Circulating Endothelial Cells [4, 6]: −34.8%^†
Creatinine Clearance [4, 6]: +38.2%^†
Phosphorus [4, 6]: −2.5%
Serum Creatinine [4, 6]: −17.5%**
Uric Acid [4, 6]: −13.3%^†
eGFR [4, 6]: +24.1%***
iNOS+ Circulating Endothelial Cells [4, 6]: −65.8%*
Hemoglobin A1c ([4]; Stratum 2, patients with BL ≥ 7.0%, change): −0.1%
eGFR increase ([4]; after 28 days of treatment): approximately 10%
eGFR increase compared to baseline ([4]; after 56 days of treatment): more than 20%

From patent publication US10105372B2, “Methods of treating obesity using antioxidant inflammation modulators” (REATA PHARMACEUTICALS, INC., priority 2010, dated 2018)
